Experiments:
[1] = biological target: T1, Corticotropin-releasing factor receptor 2 (Homo sapiens, UniProt Q13324)
T1 sequence (Q13324 whole entry): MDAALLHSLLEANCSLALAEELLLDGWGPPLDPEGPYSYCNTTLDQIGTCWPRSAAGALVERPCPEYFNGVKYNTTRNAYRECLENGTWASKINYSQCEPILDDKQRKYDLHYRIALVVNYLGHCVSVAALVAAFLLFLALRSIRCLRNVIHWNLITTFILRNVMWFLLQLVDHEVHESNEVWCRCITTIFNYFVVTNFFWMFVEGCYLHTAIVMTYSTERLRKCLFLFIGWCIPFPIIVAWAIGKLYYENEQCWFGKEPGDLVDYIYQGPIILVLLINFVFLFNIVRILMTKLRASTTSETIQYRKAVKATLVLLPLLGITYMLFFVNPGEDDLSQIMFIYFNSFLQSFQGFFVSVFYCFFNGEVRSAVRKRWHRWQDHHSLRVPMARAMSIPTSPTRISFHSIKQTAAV

[2] = biological target: T2, Gastric inhibitory polypeptide receptor (Homo sapiens, UniProt P48546)
T2 sequence (P48546 whole entry): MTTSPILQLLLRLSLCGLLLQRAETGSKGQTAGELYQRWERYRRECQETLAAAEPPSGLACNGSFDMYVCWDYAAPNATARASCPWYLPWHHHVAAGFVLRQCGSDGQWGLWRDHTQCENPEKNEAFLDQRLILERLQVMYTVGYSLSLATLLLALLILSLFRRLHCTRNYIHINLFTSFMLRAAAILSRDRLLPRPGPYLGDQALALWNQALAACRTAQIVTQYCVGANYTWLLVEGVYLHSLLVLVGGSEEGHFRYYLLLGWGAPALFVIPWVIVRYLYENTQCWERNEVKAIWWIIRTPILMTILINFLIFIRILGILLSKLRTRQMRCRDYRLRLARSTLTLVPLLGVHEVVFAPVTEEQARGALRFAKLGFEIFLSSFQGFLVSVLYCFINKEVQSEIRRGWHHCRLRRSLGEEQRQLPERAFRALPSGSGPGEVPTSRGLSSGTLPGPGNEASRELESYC

[3] = biological target: T3, Endothelin receptor type B (Homo sapiens, UniProt P24530)
T3 sequence (P24530 whole entry): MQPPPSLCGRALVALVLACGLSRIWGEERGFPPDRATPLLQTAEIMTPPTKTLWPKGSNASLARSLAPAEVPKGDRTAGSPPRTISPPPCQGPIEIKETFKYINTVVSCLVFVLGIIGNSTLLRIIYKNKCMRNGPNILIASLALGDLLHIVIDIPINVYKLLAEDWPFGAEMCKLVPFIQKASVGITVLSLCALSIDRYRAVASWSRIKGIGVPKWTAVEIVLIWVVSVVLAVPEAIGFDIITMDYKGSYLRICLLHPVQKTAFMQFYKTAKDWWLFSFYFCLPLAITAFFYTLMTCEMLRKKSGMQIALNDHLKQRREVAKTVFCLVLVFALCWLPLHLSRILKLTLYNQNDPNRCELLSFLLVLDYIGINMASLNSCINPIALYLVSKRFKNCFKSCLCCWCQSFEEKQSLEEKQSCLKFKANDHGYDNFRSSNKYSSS

Glucocorticoid receptor = biological target: T4, Glucocorticoid receptor (Homo sapiens, UniProt P04150); format: functional
T4 sequence (P04150 whole entry): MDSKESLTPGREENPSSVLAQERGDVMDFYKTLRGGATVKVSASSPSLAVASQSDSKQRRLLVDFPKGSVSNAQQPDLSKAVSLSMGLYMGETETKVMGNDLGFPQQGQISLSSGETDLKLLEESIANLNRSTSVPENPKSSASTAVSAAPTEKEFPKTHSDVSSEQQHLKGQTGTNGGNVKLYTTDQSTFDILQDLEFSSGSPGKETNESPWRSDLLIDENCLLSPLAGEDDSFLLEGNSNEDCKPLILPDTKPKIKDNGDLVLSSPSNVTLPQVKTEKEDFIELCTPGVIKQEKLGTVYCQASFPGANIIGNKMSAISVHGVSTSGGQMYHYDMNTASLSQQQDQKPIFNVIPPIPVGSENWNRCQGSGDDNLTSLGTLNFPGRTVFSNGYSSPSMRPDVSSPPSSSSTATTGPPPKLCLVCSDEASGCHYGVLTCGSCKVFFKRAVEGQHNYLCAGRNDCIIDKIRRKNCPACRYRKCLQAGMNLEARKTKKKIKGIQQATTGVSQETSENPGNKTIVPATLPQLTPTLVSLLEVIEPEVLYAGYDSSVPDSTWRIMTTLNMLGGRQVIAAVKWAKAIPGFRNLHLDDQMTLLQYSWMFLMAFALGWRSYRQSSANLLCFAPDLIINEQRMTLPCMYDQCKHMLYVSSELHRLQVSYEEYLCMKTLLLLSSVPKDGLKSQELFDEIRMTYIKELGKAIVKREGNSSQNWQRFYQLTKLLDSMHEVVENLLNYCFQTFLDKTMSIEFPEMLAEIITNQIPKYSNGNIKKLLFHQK

Androgen receptor = biological target: T5, Androgen receptor (Homo sapiens, UniProt P10275)
T5 sequence (P10275 whole entry): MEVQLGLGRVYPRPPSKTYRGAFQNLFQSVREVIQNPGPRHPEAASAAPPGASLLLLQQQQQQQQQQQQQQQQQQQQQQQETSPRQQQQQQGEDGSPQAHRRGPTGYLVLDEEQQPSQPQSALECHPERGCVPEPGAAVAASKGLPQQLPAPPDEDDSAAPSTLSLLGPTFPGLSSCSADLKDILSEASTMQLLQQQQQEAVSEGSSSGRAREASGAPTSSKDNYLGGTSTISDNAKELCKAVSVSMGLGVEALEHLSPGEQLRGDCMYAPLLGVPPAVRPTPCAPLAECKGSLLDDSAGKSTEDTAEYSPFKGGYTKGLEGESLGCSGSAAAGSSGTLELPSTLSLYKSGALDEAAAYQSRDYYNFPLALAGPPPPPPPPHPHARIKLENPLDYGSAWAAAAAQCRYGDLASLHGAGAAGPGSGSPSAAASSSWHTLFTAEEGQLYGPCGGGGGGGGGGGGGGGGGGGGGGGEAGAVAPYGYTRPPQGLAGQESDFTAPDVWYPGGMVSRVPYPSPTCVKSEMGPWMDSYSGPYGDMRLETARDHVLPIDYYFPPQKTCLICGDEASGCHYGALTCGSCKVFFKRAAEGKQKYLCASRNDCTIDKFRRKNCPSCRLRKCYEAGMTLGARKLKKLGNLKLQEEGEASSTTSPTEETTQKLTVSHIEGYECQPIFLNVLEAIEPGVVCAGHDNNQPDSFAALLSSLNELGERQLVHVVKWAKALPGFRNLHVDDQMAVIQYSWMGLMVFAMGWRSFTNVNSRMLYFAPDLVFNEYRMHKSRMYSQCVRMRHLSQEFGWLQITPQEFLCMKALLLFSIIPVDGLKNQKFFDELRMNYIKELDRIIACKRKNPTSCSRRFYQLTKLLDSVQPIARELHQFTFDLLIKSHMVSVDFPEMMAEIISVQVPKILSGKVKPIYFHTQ
Also: assay procedure not described here.

Row | SMILES | AC50 [1] | AC50 [2] | AC50 [3] | AC50 (Glucocorticoid receptor) | AC50 (Androgen receptor)
1 | CCCN1C[C@H](CSC)C[C@@H]2c3cccc4[nH]cc(c34)C[C@H]21 [PERGOLIDE] | > 30 µM | > 30 µM | > 30 µM | > 30 µM | 
2 | Cc1c(C(=O)NN2CCCCC2)nn(-c2ccc(Cl)cc2Cl)c1-c1ccc(Cl)cc1 [RIMONABANT] | > 30 µM | > 30 µM | > 30 µM | > 30 µM | 
3 | COc1ccc(CC(C)(C)NC[C@H](O)c2cc(O)cc3c2OCC(=O)N3)cc1 [OLODATEROL] |  |  |  | > 30 µM | 
4 | c1ccc([C@H]2CN3CCSC3=N2)cc1 [LEVAMISOLE] |  |  |  | > 30 µM | 
5 | N[C@@H]1[C@H]2CN(c3nc4c(cc3F)c(=O)c(C(=O)O)cn4-c3ccc(F)cc3F)C[C@@H]12 [TROVAFLOXACIN] |  |  |  | > 30 µM | 
6 | CNC1Cc2ccccc2N(C)c2ccccc21 (stereo not drawn) [METAPRAMINE] |  |  |  | > 30 µM | 
7 | CC(C)C[C@H]1C(=O)N2CCC[C@H]2[C@]2(O)O[C@](NC(=O)[C@@H]3C=C4c5cccc6[nH]c(Br)c(c56)C[C@H]4N(C)C3)(C(C)C)C(=O)N12 [BROMOCRIPTINE] | > 30 µM | > 30 µM | > 30 µM | > 30 µM | 
8 | CCC1=C(C)CN(C(=O)NCCc2ccc(S(=O)(=O)NC(=O)N[C@H]3CC[C@H](C)CC3)cc2)C1=O [GLIMEPIRIDE] |  |  |  | > 30 µM | > 30 µM
9 | C1CCC(C(CC2CCCCN2)C2CCCCC2)CC1 (stereo not drawn) [PERHEXILINE] |  |  |  | > 30 µM | 
10 | NCC(CC(=O)O)c1ccc(Cl)cc1 (stereo not drawn) [BACLOFEN] | > 30 µM | > 30 µM | > 30 µM | > 30 µM | 

Source: ChEMBL document CHEMBL5291721, “A preclinical secondary pharmacology resource illuminates target-adverse drug reaction associations of marketed drugs” (Nat Commun, 2023)
